# Source: patent US20220017516A1, “LOX INHIBITORS” (THE INSTITUTE OF CANCER RESEARCH: ROYAL CANCER HOSPITAL, priority 2018, published 2022)
# Assays:
# [1] = molecular target: T1, monoamine oxidase B (MAO-B) (Homo sapiens, UniProt P27338); test: Amine oxidase activity assay (MAO-Glo), MAO-B; assay type: biochemical
# T1 construct: purchased Sigma M7441
# T1 sequence (P27338 1-520): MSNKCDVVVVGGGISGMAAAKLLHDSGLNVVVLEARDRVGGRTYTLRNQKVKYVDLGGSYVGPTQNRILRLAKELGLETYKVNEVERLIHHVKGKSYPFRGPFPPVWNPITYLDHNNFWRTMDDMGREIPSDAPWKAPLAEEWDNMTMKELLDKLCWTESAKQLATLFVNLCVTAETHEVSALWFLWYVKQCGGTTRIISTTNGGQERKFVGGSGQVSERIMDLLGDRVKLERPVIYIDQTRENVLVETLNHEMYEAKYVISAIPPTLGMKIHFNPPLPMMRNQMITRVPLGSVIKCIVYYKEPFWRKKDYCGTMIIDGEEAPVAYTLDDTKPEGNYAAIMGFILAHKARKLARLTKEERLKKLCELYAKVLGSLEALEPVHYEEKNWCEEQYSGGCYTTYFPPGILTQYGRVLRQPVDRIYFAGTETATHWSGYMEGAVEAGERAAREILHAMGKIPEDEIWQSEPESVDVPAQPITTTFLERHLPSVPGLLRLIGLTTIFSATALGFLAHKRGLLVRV
# Protocol: The Promega MAO-Glo assay kit (V1402) was used to assess monoamine oxidase A (MAO-A) and monoamine oxidase B (MAO-B) activity. MAO substrate was prepared at 80 μM with the specific MAO-A/B reaction buffer. Overall, 0.5 μl test compound was added to 25 μl MAO substrate at 100, 30, 10, 3, 1, 0.3, 0.1, 0.03, 0.01 and 0.003 μM (final concentration) in a 96-well white, flat bottom plate. Overall, 25 μl of 1:520 dilution of MAO-A enzyme (Promega, V1452) or 25 μl of 1:52 dilution of MAO-B enzyme (Sigma, M7441) in specific MAO-A/B reaction buffer was added to each well (enzyme prepared at 2×final concentration) and plates were incubated for 1 h at room temperature. Finally, 50 μl per well luciferin detection reagent was added and plates were incubated for 20 min at room temperature, protected from light. Luminescence was measured with an integration time of 500 ms per well using a SpectaMax M5 plate reader and resulting IC50 values were calculated using GraphPad Prism software.
# (§1) In another setting, the DAO and MAO assays were performed in 384-well plates (Greiner) and test compound was added using a Labcyte Echo™ Acoustic Handler for the same final concentrations as in the 96-well setting. Luminescence was measured with BMG LABTECH PHERAstar FS plate reader.
# [2] = molecular target: T2, diamine oxidase (DAO) (Sus scrofa, UniProt Q9TRC7); test: Diamine oxidase catalytic activity assay (ROS Glo); assay type: biochemical
# T2 construct: purchased Sigma
# T2 sequence (Q9TRC7 25-755): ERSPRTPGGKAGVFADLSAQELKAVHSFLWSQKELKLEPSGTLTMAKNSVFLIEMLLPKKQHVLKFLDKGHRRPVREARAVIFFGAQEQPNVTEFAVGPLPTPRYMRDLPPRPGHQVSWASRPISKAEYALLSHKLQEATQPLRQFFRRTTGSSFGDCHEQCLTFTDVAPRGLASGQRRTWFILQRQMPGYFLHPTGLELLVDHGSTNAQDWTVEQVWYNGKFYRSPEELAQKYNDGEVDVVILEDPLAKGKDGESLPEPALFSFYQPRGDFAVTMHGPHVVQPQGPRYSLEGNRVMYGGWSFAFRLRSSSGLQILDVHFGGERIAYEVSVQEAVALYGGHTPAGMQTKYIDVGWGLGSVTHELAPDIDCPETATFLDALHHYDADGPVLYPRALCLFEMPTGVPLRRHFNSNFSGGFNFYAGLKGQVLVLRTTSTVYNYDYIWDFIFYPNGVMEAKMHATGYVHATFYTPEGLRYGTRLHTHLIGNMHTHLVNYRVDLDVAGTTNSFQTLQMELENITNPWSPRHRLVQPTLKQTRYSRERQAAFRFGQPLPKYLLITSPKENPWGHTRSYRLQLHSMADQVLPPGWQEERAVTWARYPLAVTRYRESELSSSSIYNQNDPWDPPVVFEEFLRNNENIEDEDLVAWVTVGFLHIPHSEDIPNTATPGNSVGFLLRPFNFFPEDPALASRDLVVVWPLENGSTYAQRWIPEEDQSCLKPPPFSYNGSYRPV
# Protocol: The diamine oxidase (DAO) catalytic activity was determined using the Promega ROS Glo assay kit (G8821); DAO was purchased from Sigma and cadaverine dihydrochloride was used as the substrate at a concentration of 97.8 mM. The concentrations of the chemical inhibitors were the same as in the MAO assays. Luminescence was measured with an integration time of 500 ms/well using a SpectaMax M5 plate reader and resulting IC50 values were calculated using GraphPad Prism software.
# as §1
SMILES,IC50 [1],IC50 [2]
"NCCS(=O)(=O)CC(=O)N1CCN(c2ccccc2)CC1 [Example 13, 2-((2-Aminoethyl)-sulfonyl)-1-(4-phenylpiperazin-1-yl)ethan-1-one]",> 100 µM,> 100 µM
"CCOc1ccc(N2C[C@H]3CN(C(=O)NCCS(=O)(=O)CCN)C[C@@H]2C(C)(C)C3)cc1 [Example 38, (1S,5S)—N-(2-((2-aminoethyl)sulfonyl)ethyl)-6-(4-ethoxyphenyl)-9,9-dimethyl-3,6-diazabicyclo[3.2.2]nonane-3-carboxamide]",–,> 100 µM
"CCOc1ccc(N2C[C@@H]3C[C@H]2CN3C(=O)CS(=O)(=O)CCN)cc1 [Example 8, 2-((2-aminoethyl)-sulfonyl)-1-((1S,4S)-5-(4-ethoxyphenyl)-2,5-diazabicyclo-[2.2.1]heptan-2-yl)-ethan-1-one]",> 100 µM,> 100 µM
"NCCS(=O)(=O)CC(=O)N1CCN(c2ncccn2)CC1 [Example 12, 2-((2-Aminoethyl)-sulfonyl)-1-(4-(pyrimidin-2-yl)-piperazin-1-yl)ethan-1-one]",> 100 µM,> 100 µM
"CCOc1ccc(N2C[C@H]3CN(C(=O)CS(=O)(=O)CCN)C[C@@H]2C(C)(C)C3)cc1 [Example 7, 2-((2-aminoethyl)sulfonyl)-1-((1S,5S)-6-(4-ethoxyphenyl)-9,9-dimethyl-3,6-diazabicyclo[3.2.2]nonan-3-yl)ethan-1-one]",> 100 µM,> 100 µM
"CCOc1ccc(N2C[C@H]3CN(CCS(=O)(=O)CCN)C[C@@H]2C(C)(C)C3)cc1 [Example 1, 2-((2-((1R,5S)-6-(4-ethoxyphenyl)-9,9-dimethyl-3,6-diazabicyclo[3.2.2]nonan-3-yl)ethyl)sulfonyl)ethan-1-amine]",> 100 µM,> 100 µM
"CCOc1ccc(N2C[C@H]3CN(c4ccc(S(=O)(=O)CCN)cc4)C[C@@H]2C(C)(C)C3)cc1 [Example 33, 2-((4-((1R,5S)-6-(4-ethoxyphenyl)-9,9-dimethyl-3,6-diazabicyclo [3.2.2]nonan-3-yl)phenyl)sulfonyl)ethan-1-amine]",> 100 µM,–

# Other lines, results leading:
IC50 [1],IC50 [2],SMILES
> 100 µM,> 100 µM,"Cc1ccc(S(=O)(=O)N2C[C@H]3CN(C(=O)CS(=O)(=O)CCN)C[C@H]3C2)cc1 [Example 11, 2-((2-aminoethyl)-sulfonyl)-1-(cis-5-tosylhexahydro-pyrrolo[3,4-c]pyrrol-2(1H)-yl)ethan-1-one]"
> 100 µM,> 100 µM,"CCOc1ccc(N2C[C@@H]3C[C@H]2CN3CCS(=O)(=O)CCN)cc1 [Example 2, 2-((2-((1S,4S)-5-(4-ethoxyphenyl)-2,5-diazabicyclo[2.2.1]heptan-2-yl)ethyl)sulfonyl)-ethan-1-amine]"
> 100 µM,> 100 µM,"CCOC(=O)CCC(C(=O)N1C[C@@H]2C[C@H]1CN2c1ccc(OCC)cc1)S(=O)(=O)CCN (stereo partly drawn) [Example 41, ethyl 4-((2-aminoethyl)sulfonyl)-5-((1S,4S)-5-(4-ethoxyphenyl)-2,5-diazabicyclo[2.2.1]heptan-2-yl)-5-oxopentanoate]"
> 100 µM,> 100 µM,"CCOc1ccc(N2C[C@@H]3C[C@H]2CN3C(=O)C2(S(=O)(=O)CCN)CC2)cc1 [Example 42, (1-((2-Aminoethyl)sulfonyl)cyclopropyl)((1S,4S)-5-(4-ethoxyphenyl)-2,5-diazabicyclo[2.2.1]heptan-2-yl)methanone]"
> 100 µM,–,"CCOc1ccc(N2CC3CN(CCS(=O)(=O)CCN)CC3C2)cc1 (stereo not drawn) [Example 4, 2-((2-(5-(4-ethoxyphenyl)hexahydropyrolo [3,4-c]pyrrol-2(1H)-yl)ethyl)sulfonyl)ethan-1-amine]"
